Reference: patent publication US4199504A (priority 1978, dated 1980)

Assays:
[1] = Titration pKa' in 66 percent DMF; assay type: physicochemical
[2] = tested on: experimental malignancies; conditions: naturally-occurring Vinca alkaloids; prior patents; cited from earlier work
[3] = tested on: P388 leukemia; test: P388 leukemia transplanted in mice, tumor inhibition or prolongation of survival; assay type: in vivo
Description: (§1) The compounds of this invention and those preparable by the process disclosed herein are active against transplanted tumors in mice in vivo.
(§2) The following table--Table 1--gives the results of experiments in which mice bearing transplanted Gardner lymphosarcoma (GLS), C3 H mammary tumor, B16 melanoma, P 1534(J) leukemia, P388 leukemia or 755 adenocarcinoma were treated with a compound of this invention. In the table, column 1 gives the name of the compound; column 2, the tumor system employed; column 3, the dosage schedule and column 4, the percent inhibition of tumor growth or increased life span.

[4] = tested on: B16 melanoma; test: B16 melanoma transplanted in mice, tumor inhibition or prolongation of survival; assay type: in vivo
Description: as §1, §2

CCC1(O)CC2CN(CCc3c([nH]c4ccccc34)C(C(=O)OC)(c3cc4c(cc3OC)N(C)C3C(O)(C(=O)NCCCCNC(=O)C5(O)C(O)C6(CC)C=CCN7CCC8(c9cc(C%10(C(=O)OC)CC%11CN(CCc%12c%10[nH]c%10ccccc%12%10)CC(O)(CC)C%11)c(OC)cc9N(C)C58)C76)C(O)C5(CC)C=CCN6CCC43C65)C2)C1 (stereo not drawn) [1,4-bis(4-desacetyl VLB C-3 carboxamido)butane]
pKa' [1]: 7.5
pKa' (first value) [1]: 6.6

CC[C@]1(O)C[C@@H]2CN(CCc3c([nH]c4ccccc34)[C@@](C(=O)OC)(c3cc4c(cc3OC)N(C)[C@H]3[C@@](O)(C(=O)OC)[C@H](OC(C)=O)[C@]5(CC)C=CCN6CC[C@]43[C@@H]65)C2)C1 [vincaleukoblastine]
active in the treatment of experimental malignancies in animals [2]: active

CCC1(O)CC2CN(CCc3c([nH]c4ccccc34)C(C(=O)OC)(c3cc4c(cc3OC)N(C)C3C(O)(C(=O)NCCCCCCNC(=O)C5(O)C(O)C6(CC)C=CCN7CCC8(c9cc(C%10(C(=O)OC)CC%11CN(CCc%12c%10[nH]c%10ccccc%12%10)CC(O)(CC)C%11)c(OC)cc9N(C)C58)C76)C(O)C5(CC)C=CCN6CCC43C65)C2)C1 (stereo not drawn) [1,6-bis(4-desacetyl VLB C-3 carboxamido)hexane]
pKa' [1]: 7.27
pKa' (first value) [1]: 5.27

CCC12CN3CCc4c([nH]c5ccccc45)C(C(=O)OC)(c4cc5c(cc4OC)N(C)C4C(O)(C(=O)NCCSSCCNC(=O)C6(O)C(O)C7(CC)C=CCN8CCC9(c%10cc(C%11(C(=O)OC)CC%12CN(CCc%13c%11[nH]c%11ccccc%13%11)CC%11(CC)OC%12%11)c(OC)cc%10N(C)C69)C87)C(O)C6(CC)C=CCN7CCC54C76)CC(C3)C1O2 (stereo not drawn) [bis[β-(4-desacetylleurosine C-3 carboxamido)ethyl]disulfide]
pKa' [1]: 7.0
pKa' (first value) [1]: 5.3

CCC1(O)CN2CCc3c([nH]c4ccccc34)C(C(=O)OC)(c3cc4c(cc3OC)N(C)C3C(O)(C(=O)OC)C(OC(C)=O)C5(CC)C=CCN6CCC43C65)CC(C2)C1O (stereo not drawn) [vincadioline]
active in the treatment of experimental malignancies in animals [2]: active

CC[C@]1(O)C[C@H]2CN(CCc3c([nH]c4ccccc34)[C@@](C(=O)OC)(c3cc4c(cc3OC)N(C=O)[C@H]3[C@@](O)(C(=O)OC)[C@H](OC(C)=O)[C@]5(CC)C=CCN6CC[C@]43[C@@H]65)C2)C1 [leurocristine]
active in the treatment of experimental malignancies in animals [2]: active

CCC12CN3CCc4c([nH]c5ccccc45)C(C(=O)OC)(c4cc5c(cc4OC)N(C)C4C(O)(C(=O)NCCSSCCNC(=O)C6(O)C(O)C7(CC)C=CCN8CCC9(c%10cc(C%11(C(=O)OC)CC%12CN(CCc%13c%11[nH]c%11ccccc%13%11)CC%11(CC)OC%12%11)c(OC)cc%10N(C)C69)C87)C(O)C6(CC)C=CCN7CCC54C76)CC(C3)C1O2 (stereo not drawn) [bis[β-(4-Desacetylleurosine C-3 carboxamido)ethyl]disulfide disulfate]
Percent Inhibition or Prolongation of Survival Time ([3]; P388, 15 mg./kg. × 3): 46%
Percent Inhibition or Prolongation of Survival Time ([3]; P388, 30 mg./kg. × 3): 55%

CCC1(O)CC2CN(CCc3c([nH]c4ccccc34)C(C(=O)OC)(c3cc4c(cc3OC)N(C)C3C(O)(C(=O)NCCSCCNC(=O)C5(O)C(O)C6(CC)C=CCN7CCC8(c9cc(C%10(C(=O)OC)CC%11CN(CCc%12c%10[nH]c%10ccccc%12%10)CC(O)(CC)C%11)c(OC)cc9N(C)C58)C76)C(O)C5(CC)C=CCN6CCC43C65)C2)C1 (stereo not drawn) [bis[β-(4-Desacetyl VLB C-3 carboxamido)ethyl]sulfide disulfate]
Percent Inhibition or Prolongation of Survival Time ([3]; P388, 0.6 mg./kg. × 3): 34%
Percent Inhibition or Prolongation of Survival Time ([3]; P388, 0.9 mg./kg. × 3): 49%
Percent Inhibition or Prolongation of Survival Time ([3]; P388, 1.2 mg./kg. × 3): 33%

CCC1(O)CC2CN(CCc3c([nH]c4ccccc34)C(C(=O)OC)(c3cc4c(cc3OC)N(C)C3C(O)(C(=O)NCCCCCCNC(=O)C5(O)C(O)C6(CC)C=CCN7CCC8(c9cc(C%10(C(=O)OC)CC%11CN(CCc%12c%10[nH]c%10ccccc%12%10)CC(O)(CC)C%11)c(OC)cc9N(C)C58)C76)C(O)C5(CC)C=CCN6CCC43C65)C2)C1 (stereo not drawn) [1,6-bis(4-Desacetyl VLB C-3 carboxamido)hexane disulfate]
Percent Inhibition or Prolongation of Survival Time ([3]; P388, 0.9 mg./kg. × 3): 27%
Percent Inhibition or Prolongation of Survival Time ([3]; P388, 1.2 mg./kg. × 3): 74%

CCC1(O)CC2CN(CCc3c([nH]c4ccccc34)C(C(=O)OC)(c3cc4c(cc3OC)N(C)C3C(O)(C(=O)NCCN(CCNC(=O)C5(O)C(O)C6(CC)C=CCN7CCC8(c9cc(C%10(C(=O)OC)CC%11CN(CCc%12c%10[nH]c%10ccccc%12%10)CC(O)(CC)C%11)c(OC)cc9N(C)C58)C76)CCNC(=O)C5(O)C(O)C6(CC)C=CCN7CCC8(c9cc(C%10(C(=O)OC)CC%11CN(CCc%12c%10[nH]c%10ccccc%12%10)CC(O)(CC)C%11)c(OC)cc9N(C)C58)C76)C(O)C5(CC)C=CCN6CCC43C65)C2)C1 (stereo not drawn) [tris [β-(4-desacetyl VLB C-3 carboxamido)ethyl]amine]
pKa' [1]: 7.25
pKa' (first value) [1]: 5.2

CCC1(O)CC2CN(CCc3c([nH]c4ccccc34)C(C(=O)OC)(c3cc4c(cc3OC)N(C)C3C(O)(C(=O)NCCOCCNC(=O)C5(O)C(O)C6(CC)C=CCN7CCC8(c9cc(C%10(C(=O)OC)CC%11CN(CCc%12c%10[nH]c%10ccccc%12%10)CC(O)(CC)C%11)c(OC)cc9N(C)C58)C76)C(O)C5(CC)C=CCN6CCC43C65)C2)C1 (stereo not drawn) [bis[β-(4-desacetyl VLB C-3 carboxamido)ethyl]ether]
pKa' [1]: 7.21
pKa' (first value) [1]: 5.13

CCC1(O)CC2CN(CCc3c([nH]c4ccccc34)C(C(=O)OC)(c3cc4c(cc3OC)N(C)C3C(O)(C(=O)NCCCNCCCNC(=O)C5(O)C(O)C6(CC)C=CCN7CCC8(c9cc(C%10(C(=O)OC)CC%11CN(CCc%12c%10[nH]c%10ccccc%12%10)CC(O)(CC)C%11)c(OC)cc9N(C)C58)C76)C(O)C5(CC)C=CCN6CCC43C65)C2)C1 (stereo not drawn) [bis[γ-(4-desacetyl VLB C-3 carboxamido)propyl]amine]
pKa' [1]: 7.17
pKa' (first value) [1]: 4.98
pKa' (third printed value) [1]: 10.18

CCC1(O)CC2CN(CCc3c([nH]c4ccccc34)C(C(=O)OC)(c3cc4c(cc3OC)N(C)C3C(O)(C(=O)NCC[Se][Se]CCNC(=O)C5(O)C(O)C6(CC)C=CCN7CCC8(c9cc(C%10(C(=O)OC)CC%11CN(CCc%12c%10[nH]c%10ccccc%12%10)CC(O)(CC)C%11)c(OC)cc9N(C)C58)C76)C(O)C5(CC)C=CCN6CCC43C65)C2)C1 (stereo not drawn) [bis[β-(4-desacetyl VLB C-3 carboxamido)ethyl]diselenide]
pKa' [1]: 7.22
pKa' (first value) [1]: 5.10

CCC1(O)CC2CN(CCc3c([nH]c4ccccc34)C(C(=O)OC)(c3cc4c(cc3OC)N(C)C3C(O)(C(=O)NCCCSSCCCNC(=O)C5(O)C(O)C6(CC)C=CCN7CCC8(c9cc(C%10(C(=O)OC)CC%11CN(CCc%12c%10[nH]c%10ccccc%12%10)CC(O)(CC)C%11)c(OC)cc9N(C)C58)C76)C(O)C5(CC)C=CCN6CCC43C65)C2)C1 (stereo not drawn) [bis [γ-(4-desacetyl VLB C-3 carboxamido)propyl]disulfide disulfate]
Percent Inhibition or Prolongation of Survival Time ([4]; B16, 0.6 mg./kg. × 3): 99%
number of indefinite survivors ([4]; B16, 0.6 mg./kg. × 3): 8
Percent Inhibition or Prolongation of Survival Time ([4]; B16, 0.9 mg./kg. × 3): 61%
number of indefinite survivors ([4]; B16, 0.9 mg./kg. × 3): 5
Percent Inhibition or Prolongation of Survival Time ([4]; B16, 1.2 mg./kg. × 3): 68%
number of indefinite survivors ([4]; B16, 1.2 mg./kg. × 3): 8

CCC1(O)CC2CN(CCc3c([nH]c4ccccc34)C(C(=O)OC)(c3cc4c(cc3OC)N(C)C3C(O)(C(=O)NCCCSSCCCNC(=O)C5(O)C(O)C6(CC)C=CCN7CCC8(c9cc(C%10(C(=O)OC)CC%11CN(CCc%12c%10[nH]c%10ccccc%12%10)CC(O)(CC)C%11)c(OC)cc9N(C)C58)C76)C(O)C5(CC)C=CCN6CCC43C65)C2)C1 (stereo not drawn) [bis[γ-(4-desacetyl VLB C-3 carboxamido)propyl]disulfide]
pKa' [1]: 7.21
pKa' (first value) [1]: 5.20
